Converted amounts (≈) assume the structure as drawn.
What was measured:
Test in all cases: microbe, parasite or virus in culture
Assay type in all cases: cell-based
[1] = tested on: drug-resistant Mycobacterium tuberculosis 242 (isoniazid-resistant); conditions: for MIC: Mycobacterium tuberculosis, read-out: MIC, drug-resistant bacterium 242 (H single-resistant); for MIC value, times of that of the control drug PA-824, strain 242: relative to PA-824
[2] = tested on: drug-resistant Mycobacterium tuberculosis 261 (rifampicin-resistant); conditions: for MIC: Mycobacterium tuberculosis, read-out: MIC, drug-resistant bacterium 261 (R single-resistant); for MIC value, times of that of the control drug PA-824, strain 261: relative to PA-824
[3] = tested on: drug-resistant Mycobacterium tuberculosis 246 (streptomycin-resistant); conditions: for MIC: Mycobacterium tuberculosis, read-out: MIC, drug-resistant bacterium 246 (S single-resistant); for MIC value, times of that of the control drug PA-824, strain 246: relative to PA-824

SMILES | MIC [1] | MIC value, times of that of the control drug PA-824, strain 242 [1] | MIC [2] | MIC value, times of that of the control drug PA-824, strain 261 [2] | MIC [3] | MIC value, times of that of the control drug PA-824, strain 246 [3]
CC1CN(c2ncc(CN[C@@H]3COc4nc([N+](=O)[O-])cn4C3)cn2)CCN1c1ccc(OC(F)(F)F)cc1 (stereo partly drawn) [Compound 19] | 7.8 ng/mL (≈ 0.0146 µM) | 128 times | 7.8 ng/mL (≈ 0.0146 µM) | 64 times | 7.8 ng/mL (≈ 0.0146 µM) | 64 times
N#CC1(c2ccc(OC(F)(F)F)cc2)CCN(c2ccc(CN[C@@H]3COc4nc([N+](=O)[O-])cn4C3)cn2)CC1 [Compound 10, (S)-1-(5-(((7-nitro-3,4-dihydro-2H-imidazo[2,1-b][1,3]oxazin-3-yl)amino)methyl)pyridin-2-yl)-4-(4-(trifluoromethoxy)phenyl)piperidine-4-carbonitrile] | 1.95 ng/mL (≈ 0.00359 µM) | 512 times | 1.95 ng/mL (≈ 0.00359 µM) | 256 times | 1.95 ng/mL (≈ 0.00359 µM) | 256 times
Cc1nc(N2CCN(c3ccc(OC(F)(F)F)cc3)CC2)ncc1CN[C@@H]1COc2nc([N+](=O)[O-])cn2C1 [Compound 36] | 7.8 ng/mL (≈ 0.0146 µM) | 128 times | 7.8 ng/mL (≈ 0.0146 µM) | 64 times | 7.8 ng/mL (≈ 0.0146 µM) | 64 times
O=[N+]([O-])c1cn2c(n1)OC[C@@H](NCc1ccc(N3CCN(c4ccc(OC(F)(F)F)cc4)CC3)nc1)C2 [Compound 4, (S)-2-nitro-N-((6-(4-(4-(trifluoromethoxy)phenyl)piperazin-1-yl)pyrid-3-yl)methyl)-6,7-dihydro-5H-imidazo[2,1-b][1,3]oxazin-6-amine] | 1.95 ng/mL (≈ 0.00375 µM) | 512 times | 1.95 ng/mL (≈ 0.00375 µM) | 256 times | 1.95 ng/mL (≈ 0.00375 µM) | 256 times
N#Cc1nc(N2CCN(c3ccc(OC(F)(F)F)cc3)CC2)ncc1CN[C@@H]1COc2nc([N+](=O)[O-])cn2C1 [Compound 40, (S)-5-(((2-nitro-6,7-dihydro-5H-imidazo[2,1-b][1,3]oxazin-6-yl)amino)methyl)-2-(4-(4-(trifluoromethoxy)phenyl)piperazin-1-yl)pyrimidine-4-carbonitrile] | 7.8 ng/mL (≈ 0.0143 µM) | 128 times | 7.8 ng/mL (≈ 0.0143 µM) | 64 times | 7.8 ng/mL (≈ 0.0143 µM) | 64 times
CN(Cc1cnc(N2CCN(c3ccc(OC(F)(F)F)cc3)CC2)nc1)[C@@H]1COc2nc([N+](=O)[O-])cn2C1 [Compound 44, (S)—N-methyl-2-nitro-N-((2-(4-(4-(trifluoromethoxy)phenyl)piperazin-1-yl)pyrimidin-5-yl)methyl)-6,7-dihydro-5H-imidazo[2,1-b][1,3]oxazin-6-amine] | 1.95 ng/mL (≈ 0.00365 µM) | 512 times | 1.95 ng/mL (≈ 0.00365 µM) | 256 times | 1.95 ng/mL (≈ 0.00365 µM) | 256 times
N#CC1(c2ccc(OC(F)(F)F)cc2)CCN(c2ncc(CN[C@@H]3COc4nc([N+](=O)[O-])cn4C3)cn2)CC1 [Compound 24, (S)-1-(5-(((7-nitro-3,4-dihydro-2H-imidazo[2,1-b][1,3]oxazin-3-yl)amino)methyl)pyrimidin-2-yl)-4-(4-(trifluoromethoxy)phenyl)piperidine-4-carbonitrile] | 3.9 ng/mL (≈ 0.00716 µM) | 256 times | 3.9 ng/mL (≈ 0.00716 µM) | 128 times | 3.9 ng/mL (≈ 0.00716 µM) | 128 times
O=[N+]([O-])c1cn2c(n1)OC[C@@H](NCc1ccc(N3CCC(Oc4ccc(OC(F)(F)F)cc4)CC3)nc1)C2 [Compound 1, (S)-2-nitro-N-((6-(4-(4-(trifluoromethoxy)phenoxy)piperidin-1-yl)pyrid-3-yl)methyl)-6,7-dihydro-5H-imidazo[2,1-b][1,3]oxazin-6-amine] | 7.8 ng/mL (≈ 0.0146 µM) | 128 times | 7.8 ng/mL (≈ 0.0146 µM) | 64 times | 7.8 ng/mL (≈ 0.0146 µM) | 64 times
O=[N+]([O-])c1cn2c(n1)OC[C@@H](OCc1ccc(OC(F)(F)F)cc1)C2 [PA-824, reference compound] | 1000 ng/mL (≈ 2.78 µM) | – | 500 ng/mL (≈ 1.39 µM) | – | 500 ng/mL (≈ 1.39 µM) | –
CC1CN(c2ccc(OC(F)(F)F)cc2)CCN1c1ccc(CN[C@@H]2COc3nc([N+](=O)[O-])cn3C2)cn1 (stereo partly drawn) [Compound 6, (3S)—N-((6-(2-methyl-4-(4-(trifluoromethoxy)phenyl)piperazin-1-yl)pyrid-3-yl)methyl)-7-nitro-3,4-dihydro-2H-imidazo[2,1-b][1,3]oxazin-3-amine] | 15.6 ng/mL (≈ 0.0292 µM) | – | 7.8 ng/mL (≈ 0.0146 µM) | – | 7.8 ng/mL (≈ 0.0146 µM) | –
O=[N+]([O-])c1cn2c(n1)OC[C@@H](NCc1cnc(N3CCN(c4ccc(C(F)(F)F)cc4)CC3)nc1)C2 [Compound 31, (S)-2-nitro-N-((2-(4-(4-(trifluoromethyl)phenyl)piperazin-1-yl)pyrimidin-5-yl)methyl)-6,7-dihydro-5H-imidazo[2,1-b][1,3]oxazin-6-amine] | 7.8 ng/mL (≈ 0.0155 µM) | – | 7.8 ng/mL (≈ 0.0155 µM) | – | 7.8 ng/mL (≈ 0.0155 µM) | –
O=[N+]([O-])c1cn2c(n1)OC[C@@H](NCc1cnc(N3CCN(c4ccc(OC(F)(F)F)cc4)CC3)nc1)C2 [Compound 18] | 7.8 ng/mL (≈ 0.015 µM) | 128 times | 7.8 ng/mL (≈ 0.015 µM) | 64 times | 7.8 ng/mL (≈ 0.015 µM) | 64 times
CC1CN(c2ccc(OC(F)(F)F)cc2)CCN1c1ncc(CN[C@@H]2COc3nc([N+](=O)[O-])cn3C2)cn1 (stereo partly drawn) [Compound 20, (3S)—N-((6-(2-methyl-4-(4-(trifluoromethoxy)phenyl)piperazin-1-yl)pyrimidin-3-yl)methyl)-7-nitro-3,4-dihydro-2H-imidazo[2,1-b][1,3]oxazin-3-amine] | 1.95 ng/mL (≈ 0.00365 µM) | 512 times | 1.95 ng/mL (≈ 0.00365 µM) | 256 times | 1.95 ng/mL (≈ 0.00365 µM) | 256 times
O=[N+]([O-])c1cn2c(n1)OC[C@@H](NCc1ccc(N3C4CCC3CC(Oc3ccc(OC(F)(F)F)cc3)C4)nc1)C2 (stereo partly drawn) [Compound 14, (6S)-2-nitro-N-((6-(3-(4-(trifluoromethoxy)phenoxy)-8-azabicyclo[3.2.1]octan-8-yl)pyrid-3-yl)methyl)-6,7-dihydro-5H-imidazo[2,1-b][1,3]oxazin-6-amine] | 15.6 ng/mL (≈ 0.0278 µM) | – | 7.8 ng/mL (≈ 0.0139 µM) | – | 7.8 ng/mL (≈ 0.0139 µM) | –
CC1CN(c2ccc(CN[C@@H]3COc4nc([N+](=O)[O-])cn4C3)cn2)CCN1c1ccc(OC(F)(F)F)cc1 (stereo partly drawn) [Compound 5, (3S)—N-((6-(3-methyl-4-(4-(trifluoromethoxy)phenyl)piperazin-1-yl)pyrid-3-yl)methyl)-7-nitro-3,4-dihydro-2H-imidazo[2,1-b][1,3]oxazin-3-amine] | 3.9 ng/mL (≈ 0.00731 µM) | – | 1.95 ng/mL (≈ 0.00366 µM) | – | 1.95 ng/mL (≈ 0.00366 µM) | –
